Experimental data: patent US20250115597A1, “TYK2 INHIBITORS AND COMPOSITIONS AND METHODS THEREOF” (LYNK PHARMACEUTICALS CO. LTD., priority 2021, published 2025)

target: T1, Ba/F3-FL-TYK2-P760L cells (Homo sapiens, UniProt P29597, P760L, cells depend on it); test: Anti-proliferative assay, Ba/F3-FL-TYK2-P760L cells (Cell-Titer Glo); format: cell-based; conditions: 72 h, read-out: BaF3-FL-T2P760L IC50
T1 construct: BaF3-FL-T2P760L (nM)
Protocol: Anti-Proliferative Assay Dimerization domain of Tel protein fused with JAK kinase domain was permanently transduced into Ba/F3 cells, whose proliferation is dependent on JAK activity in the absence of IL-3 induction. These engineered Ba/F3 cells (Ba/F3-FL-TYK2-[…], Ba/F3-TEL-TYK2 and Ba/F3-TEL-JAK2) were used to monitor JAK inhibitory activities of the compounds in the cellular. […] Cells were seeded at 2000/well of white flat bottom 96-well plates. The well containing medium only was used as background control. After 24 h growth, cells were treated with compounds. The test compounds were dissolved in DMSO to a stock concentration of 20 mM. 3-fold serially diluted compounds for 9 concentrations with top concentration of 20 μM was added into the each well. […] The cells continued to grow at 37° C. in 5% CO2 for 72 h after compound treatment. The viability was measured by cellular ATP determination using the Cell-Titer Glo luciferase reagent (Promega). The Luminescence value was recorded by a multi-label reader Envision (PerkinElmer).

T1 sequence (P29597 whole entry P760L): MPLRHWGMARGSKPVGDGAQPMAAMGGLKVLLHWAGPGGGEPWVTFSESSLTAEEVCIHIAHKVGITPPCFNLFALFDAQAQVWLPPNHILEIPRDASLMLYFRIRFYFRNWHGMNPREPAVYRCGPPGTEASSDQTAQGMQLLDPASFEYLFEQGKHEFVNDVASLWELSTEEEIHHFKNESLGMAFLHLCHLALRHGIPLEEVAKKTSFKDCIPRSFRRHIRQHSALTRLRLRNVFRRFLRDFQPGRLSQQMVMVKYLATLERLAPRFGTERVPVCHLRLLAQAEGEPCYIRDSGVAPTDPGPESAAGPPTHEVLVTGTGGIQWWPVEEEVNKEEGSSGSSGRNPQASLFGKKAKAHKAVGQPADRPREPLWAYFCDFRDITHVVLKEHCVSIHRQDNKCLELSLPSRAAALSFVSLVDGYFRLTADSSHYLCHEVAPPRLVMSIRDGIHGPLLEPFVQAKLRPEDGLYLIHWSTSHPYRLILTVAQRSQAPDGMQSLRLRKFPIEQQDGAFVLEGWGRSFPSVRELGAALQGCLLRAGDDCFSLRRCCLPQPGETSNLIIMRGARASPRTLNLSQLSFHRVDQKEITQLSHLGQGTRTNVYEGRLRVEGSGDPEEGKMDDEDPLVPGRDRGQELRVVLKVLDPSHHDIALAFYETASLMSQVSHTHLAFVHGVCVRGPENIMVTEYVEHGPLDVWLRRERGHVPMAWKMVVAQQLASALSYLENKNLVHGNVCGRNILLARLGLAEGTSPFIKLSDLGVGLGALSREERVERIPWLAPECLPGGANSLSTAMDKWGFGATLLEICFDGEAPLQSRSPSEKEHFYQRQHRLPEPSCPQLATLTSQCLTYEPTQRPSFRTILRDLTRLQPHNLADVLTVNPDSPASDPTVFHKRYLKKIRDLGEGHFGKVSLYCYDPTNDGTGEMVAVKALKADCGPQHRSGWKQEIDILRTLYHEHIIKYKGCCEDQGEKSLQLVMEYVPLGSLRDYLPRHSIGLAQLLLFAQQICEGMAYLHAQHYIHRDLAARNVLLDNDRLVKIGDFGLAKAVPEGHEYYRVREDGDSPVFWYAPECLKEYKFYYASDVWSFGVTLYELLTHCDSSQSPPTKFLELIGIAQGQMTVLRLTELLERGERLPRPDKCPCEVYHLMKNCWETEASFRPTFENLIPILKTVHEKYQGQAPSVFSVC

Row | Compound | GI50 [nM]
1 | COC(=O)c1cnc(NC(=O)C2CC2)cc1Nc1cnc2ccn(CC(F)(F)F)c(=O)n12 [Example 48, Methyl 6-(cyclopropanecarboxamido)-4-((5-oxo-6-(2,2,2-trifluoroethyl)-5,6-dihydroimidazo[1,2-c]pyrimidin-3-yl)amino)nicotinate] | 3810
2 | CNC(=O)c1cnc(NC(=O)C2CC2)cc1Nc1cn(C)c2ccn(C(C)C)c(=O)c12 [Example 50, 6-(Cyclopropanecarboxamido)-4-((5-isopropyl-1-methyl-4-oxo-4,5-dihydro-1H-pyrrolo[3,2-c]pyridin-3-yl)amino)-N-methylnicotinamide] | 371
3 | [2H]C([2H])([2H])NC(=O)c1cnc(NC(=O)C2CC2)cc1Nc1nn(CCOC)c2ccn(CC(F)(F)F)c(=O)c12 [Example 54, 6-(Cyclopropanecarboxamido)-4-((1-(2-methoxyethyl)-4-oxo-5-(2,2,2-trifluoroethyl)-4,5-dihydro-1H-pyrazolo[4,3-c]pyridin-3-yl)amino)-N-(methyl-d3)nicotinamide] | 1090
4 | CNC(=O)c1cnc(Nc2ccc(F)cn2)cc1Nc1cccc(C(F)(F)F)c1OC [Example 55, 6-((5-Fluoropyridin-2-yl)amino)-4-((2-methoxy-3-(trifluoromethyl)phenyl)amino)-N-methylnicotinamide] | 627
5 | CNC(=O)c1cnc(Nc2ccc(F)cn2)cc1Nc1cccc(C2(F)CC2)c1OC [Example 56, 4-((3-(1-Fluorocyclopropyl)-2-methoxyphenyl)amino)-6-((5-fluoropyridin-2-yl)amino)-N-methylnicotinamide] | 285
6 | [2H]C([2H])([2H])NC(=O)c1cnc(Nc2ccc(C)nn2)nc1Nc1cccc(-c2ncn(C)n2)c1OC [Example 61, 4-((2-Methoxy-3-(1-methyl-1H-1,2,4-triazol-3-yl)phenyl)amino)-N-(methyl-d3)-2-((6-methylpyridazin-3-yl)amino)pyrimidine-5-carboxamide] | 3510
7 | [2H]C([2H])([2H])NC(=O)c1nnc2cc1Nc1cc(cc(-c3ccc(F)cc3)c1OC)COCc1nc(ccc1F)N2 [Example 73, 18-Fluoro-11-(4-fluorophenyl)-10-methoxy-N-(methyl-d3)-15-oxa-2,4,5,8,21-pentaazatetracyclo[15.3.1.1^{3,7}.1^{9,13}]tricosa-1(20),3,5,7(23),9(22),10,12,17(21),18-nonaene-6-carboxamide] | 7980
8 | [2H]C([2H])([2H])NC(=O)c1nnc2cc1Nc1cc(cc(-c3ncc(F)cn3)c1OC)COCc1nc(ccc1F)N2 [Example 80, 18-Fluoro-11-(5-fluoropyrimidin-2-yl)-10-methoxy-N-(methyl-d3)-15-oxa-2,4,5,8,21-pentaazatetracyclo[15.3.1.1^{3,7}.1^{9,13}]tricosa-1(20),3,5,7(23),9(22),10,12,17(21),18-nonaene-6-carboxamide] | 213
9 | [2H]C([2H])([2H])NC(=O)c1cnc2nc1Nc1cc(cc(-c3ncn(C)n3)c1OC)COCc1cc(F)cc(n1)N2 [Example 81, 19-Fluoro-10-methoxy-N-(methyl-d3)-11-(1-methyl-1H-1,2,4-triazol-3-yl)-15-oxa-2,4,8,21,23-pentaazatetracyclo[15.3.1.1^{3,7}.1^{9,13}]tricosa-1(21),3,5,7(23),9(22),10,12,17,19-nonaene-6-carboxamide] | 330
10 | [2H]C([2H])([2H])NC(=O)c1cnc2cc1Nc1cc(cc(-c3ncn(C(C)C)n3)c1OC)COCc1cccc(n1)N2 [Example 84, 10-Methoxy-N-(methyl-d3)-11-[1-(propan-2-yl)-1H-1,2,4-triazol-3-yl]-15-oxa-2,4,8,21-tetraazatetracyclo[15.3.1.1^{3,7}.1^{9,13}]tricosa-1(21),3,5,7(23),9(22),10,12,17,19-nonaene-6-carboxamide] | 676
11 | [2H]C([2H])([2H])NC(=O)c1nnc2cc1Nc1cc(cc(-c3ncn(C)n3)c1OC)CNCc1nc(ccc1F)N2 [Example 87, 18-Fluoro-10-methoxy-N-(methyl-d3)-11-(1-methyl-1H-1,2,4-triazol-3-yl)-2,4,5,8,15,21-hexaazatetracyclo[15.3.1.1^{3,7}.1^{9,13}]tricosa-1(20),3,5,7(23),9(22),10,12,17(21),18-nonaene-6-carboxamide] | 584
12 | [2H]C([2H])([2H])NC(=O)c1nnc2cc1Nc1cc(cc(-c3ncn(C4CC4)n3)c1OC)COCc1cc(F)cc(n1)N2 [Example 88, 11-(1-Cyclopropyl-1H-1,2,4-triazol-3-yl)-19-fluoro-10-methoxy-N-(methyl-d3)-15-oxa-2,4,5,8,21-pentaazatetracyclo[15.3.1.1^{3,7}.1^{9,13}]tricosa-1(21),3,5,7(23),9(22),10,12,17,19-nonaene-6-carboxamide] | 46.9
13 | [2H]C([2H])([2H])NC(=O)c1cnc2cc1Nc1cc(cc(-c3ncn(C4CC4)n3)c1OC)COCc1cc(F)cc(n1)N2 [Example 89, 11-(1-Cyclopropyl-1H-1,2,4-triazol-3-yl)-19-fluoro-10-methoxy-N-(methyl-d3)-15-oxa-2,4,8,21-tetraazatetracyclo[15.3.1.1^{3,7}.1^{9,13}]tricosa-1(21),3,5,7(23),9(22),10,12,17,19-nonaene-6-carboxamide] | 32.2
14 | [2H]C([2H])([2H])NC(=O)c1nnc2cc1Nc1cc(cc(-c3ncn(C)n3)c1OC)CCC(O)c1nc(ccc1F)N2 (stereo not drawn) [Example 92, 18-Fluoro-16-hydroxy-10-methoxy-N-(methyl-d3)-11-(1-methyl-1H-1,2,4-triazol-3-yl)-2,4,5,8,21-pentaazatetracyclo[15.3.1.1^{3,7}.1^{9,13}]tricosa-1(20),3,5,7(23),9(22),10,12,17(21),18-nonaene-6-carboxamide] | 300
15 | [2H]C([2H])([2H])NC(=O)c1nnc2cc1Nc1cc(cc(-c3nc(C)co3)c1OC)COCc1nc(ccc1F)N2 [Example 93, 18-Fluoro-10-methoxy-N-(methyl-d3)-11-(4-methyl-1,3-oxazol-2-yl)-15-oxa-2,4,5,8,21-pentaazatetracyclo[15.3.1.1^{3,7}.1^{9,13}]tricosa-1(20),3,5,7(23),9(22),10,12,17(21),18-nonaene-6-carboxamide] | 97
16 | [2H]C([2H])([2H])NC(=O)c1nnc2cc1Nc1cc(cc(-c3ccn(C4CC4)n3)c1OC)COCc1cc(F)cc(n1)N2 [Example 94, 11-(1-Cyclopropyl-1H-pyrazol-3-yl)-19-fluoro-10-methoxy-N-(methyl-d3)-15-oxa-2,4,5,8,21-pentaazatetracyclo[15.3.1.1^{3,7}.1^{9,13}]tricosa-1(21),3,5,7(23),9(22),10,12,17,19-nonaene-6-carboxamide] | 293

Other lines, results leading:

Row | GI50 [nM] | Compound
17 | 80.2 | CCCn1ncc2ccc(Nc3cc(NC(=O)C4CC4)ncc3C(=O)NC)c(OC)c21 [Example 51, 6-(Cyclopropanecarboxamido)-4-((7-methoxy-1-propyl-1H-indazol-6-yl)amino)-N-methylnicotinamide]
18 | 1930 | [2H]C([2H])([2H])NC(=O)c1cnc(Nc2cc(C)c(F)cn2)nc1Nc1cccc(-c2ncn(C)n2)c1OC [Example 59, 2-((5-Fluoro-4-methylpyridin-2-yl)amino)-4-((2-methoxy-3-(1-methyl-1H-1,2,4-triazol-3-yl)phenyl)amino)-N-(methyl-d3)pyrimidine-5-carboxamide]
19 | 1410 | [2H]C([2H])([2H])NC(=O)c1cnc(Nc2ccn(C)n2)nc1Nc1cccc(-c2ncn(C)n2)c1OC [Example 60, 4-((2-Methoxy-3-(1-methyl-1H-1,2,4-triazol-3-yl)phenyl)amino)-N-(methyl-d3)-2-((1-methyl-1H-pyrazol-3-yl)amino)pyrimidine-5-carboxamide]
20 | 1180 | [2H]C([2H])([2H])NC(=O)c1cnc(Nc2cccc(C(F)(F)F)n2)nc1Nc1cccc(-c2ncn(C)n2)c1OC [Example 62, 4-((2-Methoxy-3-(1-methyl-1H-1,2,4-triazol-3-yl)phenyl)amino)-N-(methyl-d3)-2-((6-(trifluoromethyl)pyridin-2-yl)amino)pyrimidine-5-carboxamide]
21 | 796 | [2H]C([2H])([2H])NC(=O)c1cnc(Nc2ccc(F)cc2F)nc1Nc1cccc(-c2ncn(C)n2)c1OC [Example 63, 2-((2,4-Difluorophenyl)amino)-4-((2-methoxy-3-(1-methyl-1H-1,2,4-triazol-3-yl)phenyl)amino)-N-(methyl-d3)pyrimidine-5-carboxamide]
22 | 2040 | CNC(=O)c1cnc(NC(=O)C2CC2(F)F)nc1Nc1cccc(-c2ncn(C)n2)c1OC (stereo not drawn) [Example 64, 2-(2,2-Difluorocyclopropane-1-carboxamido)-4-((2-methoxy-3-(1-methyl-1H-1,2,4-triazol-3-yl)phenyl)amino)-N-methylpyrimidine-5-carboxamide]
23 | 126 | [2H]C([2H])([2H])NC(=O)c1nnc2cc1Nc1cc(cc(-c3nnc(C)o3)c1OC)COCc1nc(ccc1F)N2 [Example 90, 18-Fluoro-10-methoxy-N-(methyl-d3)-11-(5-methyl-1,3,4-oxadiazol-2-yl)-15-oxa-2,4,5,8,21-pentaazatetracyclo[15.3.1.1^{3,7}.1^{9,13}]tricosa-1(20),3,5,7(23),9(22),10,12,17(21),18-nonaene-6-carboxamide]
24 | 809 | [2H]C([2H])([2H])NC(=O)c1cnc(NC(=O)[C@H]2C[C@H]2F)cc1Nc1cn(C)c2ccn(CC)c(=O)c12 [Example 101, 4-[(5-Ethyl-1-methyl-4-oxo-pyrrolo[3,2-c]pyridin-3-yl)amino]-6-[[(1R,2R)-2-fluorocyclopropanecarbonyl]amino]-N-(methyl-d3)pyridine-3-carboxamide]
